Measured values published in ChEMBL document CHEMBL4382224, “Synthesis and evaluation of potent and selective MGL inhibitors as a glaucoma treatment” (Bioorg Med Chem, 2019).
Values belong to the molecule of their own block, whether it stands above or below them. Activity calls are given as the source filed them. The calls are words filed in the database; no cut-off is given here.

Key:
[1] = biological target: Cannabinoid receptor 2 (Mus musculus) (UniProt P47936); assay: Displacement of [3H]CP-55,940 from recombinant mouse CB2 receptor expressed in HEK293 cells at >1 uM after 1 hr by scintillation counting method; format: cell-based
Cannabinoid receptor 1 = Cannabinoid receptor 1 (Rattus norvegicus, UniProt P20272); assay: Displacement of [3H]CP-55,940 from rat CB1 receptor at >1 uM after 1 hr by scintillation counting method
[2] = biological target: T1, Monoacylglycerol lipase ABHD6 (Homo sapiens) (UniProt Q9BV23); assay: Inhibition of human ABHD6 at >10 uM
T1 sequence (whole entry): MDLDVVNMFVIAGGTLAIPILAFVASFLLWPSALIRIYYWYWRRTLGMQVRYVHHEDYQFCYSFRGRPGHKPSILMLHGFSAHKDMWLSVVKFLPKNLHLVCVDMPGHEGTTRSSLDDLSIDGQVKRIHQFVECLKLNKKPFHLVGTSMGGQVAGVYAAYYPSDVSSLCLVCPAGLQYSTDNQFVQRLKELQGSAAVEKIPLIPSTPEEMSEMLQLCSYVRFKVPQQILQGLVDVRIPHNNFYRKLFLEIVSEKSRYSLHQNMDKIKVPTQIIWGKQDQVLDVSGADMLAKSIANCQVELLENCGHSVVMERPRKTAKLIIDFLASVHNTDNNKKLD

[3] = biological target: T2, Fatty-acid amide hydrolase 1 (Rattus norvegicus, UniProt P97612); assay: Inhibition of rat FAAH using AAMCA as substrate by fluorescence assay
T2 sequence (P97612 whole entry): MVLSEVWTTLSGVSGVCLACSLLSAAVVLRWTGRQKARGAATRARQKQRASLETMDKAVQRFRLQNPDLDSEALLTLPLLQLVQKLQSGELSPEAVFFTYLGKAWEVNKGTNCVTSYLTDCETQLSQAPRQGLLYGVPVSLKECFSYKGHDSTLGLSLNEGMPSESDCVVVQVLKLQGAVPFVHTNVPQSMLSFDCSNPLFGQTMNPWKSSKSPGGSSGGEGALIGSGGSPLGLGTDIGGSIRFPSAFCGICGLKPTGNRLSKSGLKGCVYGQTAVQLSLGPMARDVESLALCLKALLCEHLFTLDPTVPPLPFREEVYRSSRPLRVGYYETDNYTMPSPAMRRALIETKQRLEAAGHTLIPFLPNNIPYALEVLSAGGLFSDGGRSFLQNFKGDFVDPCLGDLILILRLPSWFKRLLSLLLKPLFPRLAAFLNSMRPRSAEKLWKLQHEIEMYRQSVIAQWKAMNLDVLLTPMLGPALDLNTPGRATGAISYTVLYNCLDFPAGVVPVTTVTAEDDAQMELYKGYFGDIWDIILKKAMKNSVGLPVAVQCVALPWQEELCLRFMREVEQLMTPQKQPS

[4] = biological target: Cannabinoid receptor 2 (Homo sapiens) (UniProt P34972); assay: Displacement of [3H]CP-55,940 from recombinant human CB2 receptor expressed in HEK293 cells at >1 uM after 1 hr by scintillation counting method; format: cell-based
Mus musculus = assay: Anti-glaucoma activity in normotensive C57BL/6J mouse assessed as intraocular pressure at 3 mM administered as single topical treatment measured after 28 hrs by tonometry (reference value: […] +/- 1.1 mmHg); format: functional
[5] = Half life in mouse plasma at 200 uM by HPLC analysis; format: ADME, cell-free
[6] = Oral bioavailability in CD1 mouse at 10 mg/kg; format: ADME, organism-based; conditions: in vivo
[7] = Mean residence time in CD1 mouse at 2 mg/kg, iv or 10 mg/kg, po; format: ADME, organism-based; conditions: in vivo
[8] = Half life in human plasma at 200 uM by HPLC analysis; format: ADME, cell-free
[9] = Half life in human liver microsomes pretreated with compounds followed by NADPH addition by LC-MS/MS analysis; format: ADME, Microsome
[10] = Half life in mouse liver microsomes pretreated with compounds followed by NADPH addition by LC-MS/MS analysis; format: ADME, Microsome
[11] = Half life in rat plasma at 200 uM by HPLC analysis; format: ADME, cell-free
[12] = Half life in rat liver microsomes pretreated with compounds followed by NADPH addition by LC-MS/MS analysis; format: ADME, Microsome
[13] = Drug uptake in CD1 mouse brain at 2 mg/kg, iv or 10 mg/kg, po; format: ADME, organism-based; conditions: in vivo

Chain of Cannabinoid receptor 2 (Mus musculus) (P47936 whole entry): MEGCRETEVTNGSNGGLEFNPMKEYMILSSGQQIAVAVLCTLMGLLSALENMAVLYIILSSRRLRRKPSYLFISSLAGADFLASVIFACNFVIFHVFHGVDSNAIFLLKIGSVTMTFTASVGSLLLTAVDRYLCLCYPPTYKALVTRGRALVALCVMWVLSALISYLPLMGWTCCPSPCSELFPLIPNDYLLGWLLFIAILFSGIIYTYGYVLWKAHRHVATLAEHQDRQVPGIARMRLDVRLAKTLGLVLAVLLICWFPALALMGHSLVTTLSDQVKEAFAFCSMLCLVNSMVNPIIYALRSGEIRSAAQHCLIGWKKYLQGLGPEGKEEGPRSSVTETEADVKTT
Chain of Cannabinoid receptor 2 (Homo sapiens) (P34972 whole entry): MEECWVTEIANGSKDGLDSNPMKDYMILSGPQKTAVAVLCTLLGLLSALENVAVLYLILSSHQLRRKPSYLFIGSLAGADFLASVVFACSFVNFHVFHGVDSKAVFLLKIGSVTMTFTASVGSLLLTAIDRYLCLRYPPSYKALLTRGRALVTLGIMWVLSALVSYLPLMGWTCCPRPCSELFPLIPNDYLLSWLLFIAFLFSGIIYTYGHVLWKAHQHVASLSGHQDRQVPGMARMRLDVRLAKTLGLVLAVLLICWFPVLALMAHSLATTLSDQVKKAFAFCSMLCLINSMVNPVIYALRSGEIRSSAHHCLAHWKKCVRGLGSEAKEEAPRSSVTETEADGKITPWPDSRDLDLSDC
Chain of Cannabinoid receptor 1 (P20272 whole entry): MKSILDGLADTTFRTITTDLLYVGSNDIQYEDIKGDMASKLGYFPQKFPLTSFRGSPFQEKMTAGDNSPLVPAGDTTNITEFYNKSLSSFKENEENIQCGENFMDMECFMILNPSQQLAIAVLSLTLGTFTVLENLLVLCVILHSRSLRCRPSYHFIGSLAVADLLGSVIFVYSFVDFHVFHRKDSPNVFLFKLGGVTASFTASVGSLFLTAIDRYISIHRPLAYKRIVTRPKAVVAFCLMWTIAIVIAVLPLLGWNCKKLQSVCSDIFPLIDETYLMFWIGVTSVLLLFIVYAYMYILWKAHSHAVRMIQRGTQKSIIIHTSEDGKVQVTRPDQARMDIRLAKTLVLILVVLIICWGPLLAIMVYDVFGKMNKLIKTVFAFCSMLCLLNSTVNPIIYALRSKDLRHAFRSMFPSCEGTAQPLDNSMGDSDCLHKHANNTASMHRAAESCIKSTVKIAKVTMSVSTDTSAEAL

Compound: N#Cc1cccc(OC(=O)N2CCN(C3c4ccccc4-c4ccccc43)CC2)c1
- Activity [1]: inactive
- Activity (Cannabinoid receptor 1): Not Active
- inhibition [2]: inactive
- IC50 [3]: > 1 µM
- Activity [4]: inactive

Compound: N#Cc1cc(F)cc(OC(=O)N2CCC(C(c3ccccc3)c3ccccc3)CC2)c1
- Activity [1]: inactive
- Activity (Cannabinoid receptor 1): Not Active
- inhibition [2]: inactive
- IC50 [3]: > 1 µM
- Activity [4]: inactive

Compound: N#Cc1cccc(OC(=O)N2CCC(OC(c3ccccc3)c3ccccc3)CC2)c1
- Activity [1]: inactive
- Activity (Cannabinoid receptor 1): Not Active
- inhibition [2]: inactive
- IC50 [3]: > 1 µM
- Activity [4]: inactive

Compound: O=C(Oc1ccccc1)N1CCN(C(c2ccccc2)c2ccccc2)CC1
- Activity [1]: inactive
- Activity (Cannabinoid receptor 1): Not Active
- inhibition [2]: inactive
- Activity [4]: inactive

Compound: COc1cc(C#N)cc(OC(=O)N2CCC(C(c3ccccc3)c3ccccc3)CC2)c1
- Activity [1]: inactive
- Activity (Cannabinoid receptor 1): Not Active
- inhibition [2]: inactive
- IC50 [3]: > 1 µM
- Activity [4]: inactive

Compound: Cc1cc(C#N)cc(OC(=O)N2CCC(C(c3ccccc3)c3ccccc3)CC2)c1
- Activity [1]: inactive
- Activity (Cannabinoid receptor 1): Not Active
- inhibition [2]: inactive
- IC50 [3]: > 1 µM
- Activity [4]: inactive

Compound: N#Cc1cccc(OC(=O)N2CCC(C(c3ccccc3)c3ccccc3)CC2)c1
- Activity (Mus musculus): 19.9 mmHg
- t1/2 [5]: > 2 h
- Activity [1]: inactive
- bioavailability [6]: 15%
- MRT [7]: 6 h
- t1/2 [8]: > 2 h
- Activity (Cannabinoid receptor 1): Not Active
- t1/2 [9]: 2.03 h
- inhibition [2]: inactive
- t1/2 [10]: 0.333 h
- t1/2 [11]: > 2 h
- IC50 [3]: > 1 µM
- t1/2 [12]: 0.717 h
- Drug uptake [13]: 65%
- Activity [4]: inactive

Compound: N#Cc1cccc(OC(=O)N2CCN(C3CCCCC3)CC2)c1
- Activity [1]: inactive
- Activity (Cannabinoid receptor 1): Not Active
- inhibition [2]: inactive
- IC50 [3]: 0.067 µM
- Activity [4]: inactive

- Activity [1]: inactive
- Activity (Cannabinoid receptor 1): Not Active
- inhibition [2]: inactive
- IC50 [3]: > 1 µM
- Activity [4]: inactive
Compound: N#Cc1ccnc(OC(=O)N2CCC(C(c3ccccc3)c3ccccc3)CC2)c1

Compound: N#Cc1cccc(OC(=O)N2CCN(C3CC3)CC2)c1
- Activity [1]: inactive
- Activity (Cannabinoid receptor 1): Not Active
- inhibition [2]: inactive
- IC50 [3]: 0.063 µM
- Activity [4]: inactive

Compound: N#Cc1cccc(OC(=O)N2CCN(C(c3ccccc3)c3cccnc3)CC2)c1 (stereo not drawn)
- Activity [1]: inactive
- Activity (Cannabinoid receptor 1): Not Active
- inhibition [2]: inactive
- IC50 [3]: > 1 µM
- Activity [4]: inactive

Compound: N#Cc1cccc(OC(=O)N2CCN(C(c3ccc(F)cc3)c3ccc(F)cc3)CC2)c1
- Activity [1]: inactive
- Activity (Cannabinoid receptor 1): Not Active
- inhibition [2]: inactive
- IC50 [3]: > 1 µM
- Activity [4]: inactive

- Activity [1]: inactive
- Activity (Cannabinoid receptor 1): Not Active
- inhibition [2]: inactive
- IC50 [3]: > 1 µM
- Activity [4]: inactive
Compound: N#Cc1cccc(OC(=O)N2CCC(C(c3ccccc3)c3ccccc3)CC2)n1

Compound: N#Cc1cccc(OC(=O)N2CCC(C(c3ccc(Cl)cc3)c3ccc(Cl)cc3)CC2)c1
- Activity [1]: inactive
- Activity (Cannabinoid receptor 1): Not Active
- inhibition [2]: inactive
- IC50 [3]: > 1 µM
- Activity [4]: inactive

Compound: N#Cc1ccc(F)c(OC(=O)N2CCC(C(c3ccccc3)c3ccccc3)CC2)c1
- Activity [1]: inactive
- Activity (Cannabinoid receptor 1): Not Active
- inhibition [2]: inactive
- IC50 [3]: > 1 µM
- Activity [4]: inactive

Compound: CC(C)N1CCN(C(=O)Oc2cccc(C#N)c2)CC1
- Activity [1]: inactive
- Activity (Cannabinoid receptor 1): Not Active
- inhibition [2]: inactive
- IC50 [3]: 0.068 µM
- Activity [4]: inactive

Compound: N#Cc1cccc(OC(=O)N2CCN(C(c3ccccc3)c3ccccc3)CC2)c1
- Activity [1]: inactive
- Activity (Cannabinoid receptor 1): Not Active
- inhibition [2]: inactive
- IC50 [3]: > 1 µM
- Activity [4]: inactive

Compound: N#Cc1cccc(OC(=O)N2CCC(NC(c3ccccc3)c3ccccc3)CC2)c1
- Activity [1]: inactive
- Activity (Cannabinoid receptor 1): Not Active
- inhibition [2]: inactive
- IC50 [3]: > 1 µM
- Activity [4]: inactive

- Activity [1]: inactive
- Activity (Cannabinoid receptor 1): Not Active
- inhibition [2]: inactive
- Activity [4]: inactive
Compound: N#Cc1cccc(OC(=O)N2CCC(S(=O)(=O)C(c3ccccc3)c3ccccc3)CC2)c1

Compound: N#Cc1cc(O)cc(OC(=O)N2CCC(C(c3ccccc3)c3ccccc3)CC2)c1
- Activity [1]: inactive
- Activity (Cannabinoid receptor 1): Not Active
- inhibition [2]: inactive
- IC50 [3]: > 1 µM
- Activity [4]: inactive
